# Results from publication PMC7047272 (ACS Central Science, 2020).
# How the values were obtained:
# [1] = biological target: β2 of human 20S constitutive proteasome (CP) (Homo sapiens, UniProt Q99436); assay: Fluorogenic substrate hydrolysis, trypsin-like activity; type: biochemical
# [2] = system: chymotrypsin-like activity in live LCL721.145 cells (containing immunoproteasome); type: cell-based, human; settings: MeO-Suc-GLF-AMC, up to 1 μM
# [3] = biological target: β5 of mouse 20S constitutive proteasome (CP) (Mus musculus, UniProt O55234); assay: Fluorogenic substrate hydrolysis, chymotrypsin-like activity; type: biochemical
# [4] = biological target: β5i of human 20S immunoproteasome (IP) (Homo sapiens, UniProt P28062); assay: as above; type: biochemical
# [5] = biological target: β5 of human 20S constitutive proteasome (CP) (Homo sapiens, UniProt P28074); assay: as above; type: biochemical
# [6] = biological target: β5i of mouse 20S immunoproteasome (IP) (Mus musculus, UniProt P28063); assay: biochemical
# [7] = biological target: β2i of human 20S immunoproteasome (IP) (Homo sapiens, UniProt P40306); assay: Fluorogenic substrate hydrolysis, trypsin-like activity; type: biochemical
# [8] = biological target: β2i of mouse 20S immunoproteasome (IP) (Mus musculus, UniProt O35955); assay: biochemical; type: biochemical
# [9] = biological target: β2 of mouse 20S constitutive proteasome (CP) (Mus musculus, UniProt P70195); type: biochemical; settings: at concentrations up to 1 μM
# [10] = biological target: β1i (LMP2) of mouse 20S immunoproteasome (IP) (Mus musculus, UniProt P28076); assay: biochemical
SMILES,IC50 [1] [nM],inhibition of chymotrypsin-like activity in live cells (cell permeability) [2],IC50 [3] [nM],IC50 [4] [nM],IC50 [5] [nM],IC50 [6] [nM],IC50 [7] [nM],IC50 [8] [nM],selectivity β2/β2i [8],effect on β2 of the constitutive proteasome [9],IC50 [10] [nM]
"CCCCCCC/C=C/C=C/C(=O)N[C@H](C(=O)N[C@H]1CCCCNC(=O)/C=C/[C@H](C)NC1=O)[C@@H](C)O [LumA, luminmycin A]",260,inactive,32,1600,39,8.9,170,,,,
"CCCCCCC/C=C/C=C/C(=O)N[C@H](C(=O)N[C@H]1C[C@@H](O)CCNC(=O)/C=C/[C@H](C)NC1=O)[C@@H](C)O [GlbA, glidobactin A]",15,inactive,0.65,25,3.6,1.1,42,1.4,> 714,almost unaffected,250
